Nine compounds from PubChem BioAssay (NCI) can be followed below.

What all share (assay): growth of human tumour cells (NCI), 48 h
Test [1] has as its system SNB-19 CNS.
The test system of test [2] is NCI-H23 lung.
Test [3] concerns K-562 leukemia.
For test [4], the system named is HOP-62 NSCLC.
The subject of test [5] is SN12C renal.
Test [6] concerns IGROV1 ovarian.
The subject of test [7] is UACC-257 melanoma.
For test [8], the system named is EKVX NSCLC.

Each structure is given as a SMILES string.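 Cells were grown in 96-well plates and exposed to each compound for 48 hours at five concentrations; endpoints were interpolated linearly between bracketing concentrations, or set to the highest concentration if not reached. GI50 is the concentration that inhibits growth by half. The concentration for full growth arrest is given as TGI.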 *1 amine or outer side, *2 acyl side, *3 side chain or, on linkers, in order; H or OH if unused. Where a SMILES comes first, the peptide text is derived from it. [ ]: non-standard residue; d: D form. The star is where a group is joined. ξ: configuration not given here. X15 = CCN(CC)c1ccc2cc(N*)c(=O)oc2c1; dIva = CC[C@@](C)(N)C(=O)O; X14 = O=C(OCCN[*:1])[*:2]; Aib = CC(C)(N)C(=O)O; ξP = O=C(O)C1CCCN1; βAla = NCCC(=O)O

For `Nc1c(C(=O)Nc2ccccc2)sc2nc3c(cc12)CN(Cc1ccccc1)CC3`, the GI50 in test [1] is 18.3 µM; in test [2], 21.7 µM; in test [3] it was 9.1 µM; in test [4] it was 4.11 µM; in test [5], 65.7 µM; in test [6], 37.8 µM. For the same compound, the GI50 in test [7] was 52.8 µM. Further, the TGI is > 100 µM in test [1]; > 100 µM in test [2]; > 100 µM in test [3]; 33.3 µM in test [4]; > 100 µM in test [5]; > 100 µM in test [6]. The TGI in test [7] is > 100 µM.
Regarding `CC(=O)O[C@H]1CC[C@@]2(C)[C@@H](CC[C@@H]3[C@@H]2CC[C@]2(C)C=C(C=O)C[C@@H]32)C1`, the GI50 was 14.5 µM in test [1]; 10.5 µM in test [2]; 3.74 µM in test [3]; 10.5 µM in test [4]; 3.42 µM in test [5]; 3.73 µM in test [6]. Besides, the GI50 in test [7] is 12.2 µM. The TGI in test [1] worked out at 30.8 µM; in test [2] it was 31.1 µM; in test [3], 16.5 µM; in test [4] it was 23.1 µM; in test [5], 10.6 µM; in test [6], 14.6 µM. This compound displayed a TGI in test [7] of 26.3 µM.
As to `CCN(CC)c1ccc2cc(NC(=O)OCCNC(=O)CCNC(=O)[C@H](CC(C)C)NC(=O)C(C)(C)NC(=O)C(C)(C)NC(=O)[C@H](CC(C)C)NC(=O)CCNC(=O)C(C)(C)NC(=O)[C@H](CC(C)C)NC(=O)CCNC(=O)[C@@](C)(CC)NC(=O)[C@H](C)NC(=O)CCNC(=O)C(C)(C)NC(=O)[C@H](C)NC(=O)[C@@H]3CCCN3C(=O)[C@@](C)(CC)NC(=O)[C@H](Cc3ccccc3)NC(=O)C3CCCN3C(=O)C(C)(C)NC(=O)C3CCCN3C(=O)C(C)(C)NC(C)=O)c(=O)oc2c1` (stereo partly specified) (Ac-[Aib][ξP][Aib][ξP]F[dIva]PA[Aib][βAla]A[dIva][βAla]L[Aib][βAla]L[Aib][Aib]L[βAla][X14]-X15), the GI50 in test [1] was 0.00355 µM; in test [2], 0.00347 µM; in test [3], 0.00417 µM; in test [4], 0.00385 µM; in test [5], 0.0034 µM; in test [8], 0.00421 µM. In addition, in test [7], the GI50 was 0.00222 µM. For the same compound, the TGI in test [1] was 0.0426 µM; in test [2], 0.014 µM; in test [3], 0.0237 µM; in test [4], 0.021 µM; in test [5], 0.0143 µM; in test [8], 0.0241 µM. Besides, the TGI in test [7] worked out at 0.0065 µM.
Turning to `COCCNc1cc(NC(=O)N2CCCc3cc(CN4CCN(C)CC4=O)c(C=O)nc32)ncc1C#N`, the GI50 in test [1], in test [2], in test [4], in test [5], in test [8] and in test [6] was > 50 µM each time. The GI50 in test [7] was > 50 µM. The TGI in test [1], in test [2], in test [4], in test [5], in test [8] and in test [6] was > 50 µM each time. In addition, in test [7], the TGI is > 50 µM.
Regarding `CCCCN(CCCC)c1ccc(C(=NC(C)CCCN(CC)CC)c2ccc(N(C)C)cc2)cc1` (stereo unspecified), the GI50 in test [1] was 1.14 µM; in test [2], 0.889 µM; in test [3], 0.153 µM; in test [4], 0.829 µM; in test [8], 1.05 µM; in test [6], 0.897 µM. Further, the GI50 in test [7] is 0.915 µM. For the same compound, the TGI in test [1] came out at 2.82 µM; in test [2] it was 1.93 µM; in test [3], 0.549 µM; in test [4] it was 1.63 µM; in test [8], 2.95 µM; in test [6] it was 1.95 µM. Further, the TGI in test [7] came out at 1.83 µM.
Regarding `COC(=O)C1=C(OC(=O)c2ccc(Cl)cc2)C(C(=O)OC)[C@@]2(O)[C@@H](C(=O)OC)C(c3ccccc3Cl)C[C@@H]1[C@@H]2C(=O)OC` (stereo partly specified), the GI50 is 24.1 µM in test [1]; 3.23 µM in test [2]; 6 µM in test [3]; 15.9 µM in test [4]; 4.22 µM in test [5]; 6.17 µM in test [8]. Also, in test [7], the GI50 is 3.52 µM. For the same compound, the TGI in test [1] was > 100 µM; in test [2], > 100 µM; in test [3], > 100 µM; in test [4] it was > 100 µM; in test [5], 31 µM; in test [8], > 100 µM. The compound also registered a TGI in test [7] of 22.4 µM.
On to `Cc1ccc2c(c1)C(=O)c1c-2n(CCCBr)c(=O)c2cc([N+](=O)[O-])ccc12`, for which the GI50 in test [1] is 47.9 µM; in test [3], 32.1 µM; in test [4], 24.4 µM; in test [5], 46.4 µM; in test [8], > 100 µM; in test [6] it was 6.65 µM. The GI50 in test [7] was > 100 µM. Moreover, the TGI in test [1] is > 100 µM; in test [3] it was > 100 µM; in test [4], > 100 µM; in test [5] it was > 100 µM; in test [8], > 100 µM; in test [6], 65.8 µM. The TGI in test [7] is > 100 µM.
With `COc1cc(C(=O)/C=C/c2cccnc2Nc2ccccc2)cc(OC)c1OC`, the GI50 in test [1] is 1.48 µM; in test [2] it was 1.43 µM; in test [4], 0.657 µM; in test [5], 1.21 µM; in test [8], 1.61 µM; in test [6] it was 2.37 µM. Moreover, the GI50 in test [7] is 1.51 µM. The TGI in test [1] was 2.86 µM; in test [2] it was 3 µM; in test [4], 1.88 µM; in test [5], 2.55 µM; in test [8], 3.04 µM; in test [6], 5.3 µM. This compound also displayed a TGI in test [7] of 2.86 µM.
On to `CCCc1cc(=O)n2c(C(=O)Nc3ccccc3OC)c(C(=O)Nc3ccc(F)cc3)sc2n1`, for which the GI50 is 23.1 µM in test [1]; 37.1 µM in test [2]; 4.64 µM in test [3]; 2.21 µM in test [4]; 30.7 µM in test [8]; 21.5 µM in test [6]. Moreover, the GI50 in test [7] was 20.2 µM. Besides, the TGI in test [1] is 68.5 µM; in test [2], > 160 µM; in test [3], 33.1 µM; in test [4], 13.9 µM; in test [8], > 160 µM; in test [6], 46.2 µM. The same compound showed a TGI in test [7] of 60.2 µM.
